In patent US10703748B2, “Diazanaphthalen-3-yl carboxamides and preparation and use thereof” (Samumed, LLC, priority 2017, dated 2020):
pEC50: −log10 of the molar value.

Columns and labels:
DYRK1A kinase = DYRK1A kinase (Homo sapiens, UniProt Q13627); assay: DYRK1A kinase activity (Ser/Thr 18 peptide Z-lyte FRET assay); format: biochemical; conditions: recombinant DYRK1A, 30 μM ATP, one hour at room temperature;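 also: kinase activity read as coumarin/fluorescein emission ratio after development step, with unphosphorylated and phosphorylated peptide forms setting 0% and 100% controls, values from dose-response curves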
GSK3β kinase = GSK3β kinase (Homo sapiens, UniProt P49841); assay: GSK3β kinase activity (Ser/Thr 09 peptide Z-lyte FRET assay); format: biochemical; conditions: recombinant kinase, 46 μM ATP, one hour at room temperature; read-out: EC50
GSK3β kinase, sequence (P49841 whole entry): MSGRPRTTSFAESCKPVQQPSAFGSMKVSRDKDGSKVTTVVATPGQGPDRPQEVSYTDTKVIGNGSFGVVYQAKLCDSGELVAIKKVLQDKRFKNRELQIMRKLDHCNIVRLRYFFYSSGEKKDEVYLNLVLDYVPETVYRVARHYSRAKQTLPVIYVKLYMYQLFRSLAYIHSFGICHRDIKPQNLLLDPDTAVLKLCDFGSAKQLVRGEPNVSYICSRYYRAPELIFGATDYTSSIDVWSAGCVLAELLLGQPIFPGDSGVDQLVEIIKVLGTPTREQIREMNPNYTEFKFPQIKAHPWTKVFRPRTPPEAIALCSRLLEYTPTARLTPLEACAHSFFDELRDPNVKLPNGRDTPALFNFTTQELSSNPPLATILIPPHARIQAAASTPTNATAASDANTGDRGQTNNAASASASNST

[1] = test system: secreted cytokines TNFα, IL-6 and KC-GRO; assay: Secreted cytokines in Lipopolysaccharide-stimulated BV-2 cells (Table 9 does not say which cytokine); format: cell-based, mouse; conditions: Mus musculus, BV-2, 5 h; read-out: EC50
[2] = test system: SW480 colon carcinoma cells; assay: Cell viability assay (CellTiter-Glo); conditions: Homo sapiens; for pEC50: SW480, 96 h; for inhibition at 10 µM: SW480, read-out: percent inhibition at 10 μM
[3] = test system: Wnt-responsive Sp5-Luc reporter in SW480 colon carcinoma cells; assay: Screening assay for Wnt activity (Sp5-Luc reporter gene assay); conditions: Homo sapiens; for pEC50: SW480; for inhibition at 10 µM: SW480, read-out: percent inhibition at 10 μM
IL-6 = IL-6 inhibition in LPS-stimulated human peripheral blood mononuclear cells (HTRF); conditions: Homo sapiens, PBMC; for pEC50: 22 h; for inhibition at 10 µM: read-out: percentage in parentheses after EC50 >10
[4] = test system: α-smooth muscle actin (aSMA) positive LL29 cells; assay: Inhibition of the fibrotic process: αSMA staining in TGF-β1 treated LL29 fibroblasts from IPF patients; conditions: Homo sapiens, Fibroblast; for pEC50: 96 h; for inhibition at 10 µM: read-out: percentage in parentheses after EC50 >10

SMILES | pEC50 (DYRK1A kinase) | pEC50 (GSK3β kinase) | pEC50 [1] | pEC50 [2] | pEC50 [3] | pEC50 (IL-6) | inhibition at 10 µM (IL-6) | pEC50 [4] | inhibition at 10 µM [4] | inhibition at 10 µM [2] | inhibition at 10 µM [3]
Cn1cncc1-c1cnc2cnc(NC(=O)c3cccc(CN4CCCC4)c3)cc2c1 [Compound 3259, N-(3-(1-Methyl-1H-imidazol-5-yl)-1,7-naphthyridin-6-yl)-3-(pyrrolidin-1-ylmethyl)benzamide] | 7.62 | < 5.00 | 5.92 | 5.71 | 5.46 | < 5.00 | 4.1% | < 5.00 | 48.4% | – | –
CC(C)n1cc(C(=O)Nc2ncc3ccc(-c4cncc(NC5CCN(C)CC5)n4)cc3n2)cn1 [Compound 1813, 1-Isopropyl-N-(7-(6-((1-methylpiperidin-4-yl)amino)pyrazin-2-yl)quinazolin-2-yl)-1H-pyrazole-4-carboxamide] | 8.70 | < 5.00 | 6.02 | 6.00 | 6.40 | < 5.00 | 42% | 5.23 | – | – | –
CN(C)CCNc1cc(C(=O)Nc2ncc3ccc(-c4cnn(C)c4)cc3n2)ccn1 [Compound 1071, 2-((2-(Dimethylamino)ethyl)amino)-N-(7-(1-methyl-1H-pyrazol-4-yl)quinazolin-2-yl)isonicotinamide] | 8.00 | < 5.00 | 5.74 | 5.46 | 5.82 | < 5.00 | 11.8% | 5.16 | – | – | –
Cn1cc(-c2cnc3cnc(NC(=O)CCc4ccccc4)cc3c2)cn1 [Compound 2914, N-(3-(1-Methyl-1H-pyrazol-4-yl)-1,7-naphthyridin-6-yl)-3-phenylpropanamide] | 7.55 | 6.34 | 6.88 | 6.16 | 6.12 | < 5.00 | 5% | 6.05 | – | – | –
O=C(Nc1cc2nc(-c3cncs3)ccc2cn1)c1ccc(OC2CCNCC2)cc1 [Compound 624, 4-(Piperidin-4-yloxy)-N-(2-(thiazol-5-yl)-1,6-naphthyridin-7-yl)benzamide] | 8.52 | 5.53 | 5.06 | 6.16 | 6.12 | 5.51 | – | 6.31 | – | – | –
CN(C)CCNc1cc(C(=O)Nc2cc3cc(-c4cnn(C)c4)ncc3cn2)ccn1 [Compound 3791, 2-((2-(Dimethylamino)ethyl)amino)-N-(6-(1-methyl-1H-pyrazol-4-yl)-2,7-naphthyridin-3-yl)isonicotinamide] | 8.00 | 5.87 | 5.41 | 5.47 | 6.32 | < 5.00 | 0% | 5.31 | – | – | –
CN(C)Cc1ccc(C(=O)Nc2cc3cc(-c4cnn(C)c4)ncc3cn2)cc1 [Compound 3797, 4-((Dimethylamino)methyl)-N-(6-(1-methyl-1H-pyrazol-4-yl)-2,7-naphthyridin-3-yl)benzamide] | 8.10 | 6.39 | 7.27 | 5.15 | 6.37 | < 5.00 | 7% | 5.57 | – | – | –
CN1CCC(n2cc(C(=O)Nc3cc4cc(-c5cnn(C)c5)cnc4cn3)cn2)CC1 [Compound 2949, N-(3-(1-Methyl-1H-pyrazol-4-yl)-1,7-naphthyridin-6-yl)-1-(1-methylpiperidin-4-yl)-1H-pyrazole-4-carboxamide] | 7.62 | < 5.00 | 6.34 | 6.36 | 7.23 | 5.04 | – | 5.29 | – | – | –
Cn1cc(-c2ccc3cnc(NC(=O)c4ccc5nccnc5c4)nc3c2)cn1 [Compound 1123, N-(7-(1-Methyl-1H-pyrazol-4-yl)quinazolin-2-yl)quinoxaline-6-carboxamide] | 7.89 | 5.32 | 6.00 | 5.21 | 5.71 | < 5.00 | 6.5% | < 5.00 | 22% | – | –
CC(C)OC(=O)N1CCC(n2cc(C(=O)Nc3cc4cc(-c5cnn(C)c5)ncc4cn3)cn2)CC1 [Compound 3861, Isopropyl 4-(4-((6-(1-methyl-1H-pyrazol-4-yl)-2,7-naphthyridin-3-yl)carbamoyl)-1H-pyrazol-1-yl)piperidine-1-carboxylate] | 8.30 | 5.98 | 6.46 | 6.03 | 6.08 | < 5.00 | 5.8% | 6.22 | – | – | –
CC(C)OCCC(=O)Nc1cc2nc(-c3cncn3C)ccc2cn1 [Compound 416, 3-Isopropoxy-N-(2-(1-methyl-1H-imidazol-5-yl)-1,6-naphthyridin-7-yl) propanamide] | 7.51 | 7.31 | 5.48 | < 5.00 | 6.41 | 5.24 | – | 6.45 | – | 52.1% | –
CN1CCCN(c2cc(C(=O)Nc3cc4nc(-c5cn(C)nn5)ccc4cn3)ccn2)CC1 [Compound 379, 2-(4-Methyl-1,4-diazepan-1-yl)-N-(2-(1-methyl-1H-1,2,3-triazol-4-yl)-1,6-naphthyridin-7-yl)isonicotinamide] | 7.96 | 6.44 | 6.13 | 5.87 | 5.80 | 5.68 | – | 5.67 | – | – | –
Cc1nnc(-c2ccc3cnc(NC(=O)CN4C[C@@H]5C[C@H]4CO5)nc3c2)s1 [Compound 4593, 2-((1S,4S)-2-Oxa-5-azabicyclo[2.2.1]heptan-5-yl)-N-(7-(5-methyl-1,3,4-thiadiazol-2-yl)quinazolin-2-yl)acetamide] | 6.88 | 7.47 | 5.60 | < 5.00 | < 5.00 | < 5.00 | 4.8% | < 5.00 | 41.4% | 27.4% | 32.8%
Cc1ncc(-c2cnc3cnc(NC(=O)C4CCN(C5COC5)CC4)cc3c2)s1 [Compound 4622, N-(3-(2-methylthiazol-5-yl)-1,7-naphthyridin-6-yl)-1-(oxetan-3-yl)piperidine-4-carboxamide] | 7.40 | 5.33 | 5.85 | < 5.00 | < 5.00 | < 5.00 | 2.3% | < 5.00 | 29.4% | 27.9% | 50%
Cc1ncc(-c2ccc3cnc(NC(=O)[C@H]4CC[C@H](CO)CC4)nc3c2)o1 [Compound 1447, trans-4-(Hydroxymethyl)-N-(7-(2-methyloxazol-5-yl)quinazolin-2-yl)cyclohexane-1-carboxamide] | 7.25 | 6.02 | 6.22 | < 5.00 | 6.21 | < 5.00 | 0% | < 5.00 | 35.5% | 8.5% | –
CN1CCC(n2cc(C(=O)Nc3cc4nc(-c5cncc6[nH]ccc56)ccc4cn3)cn2)CC1 [Compound 896, N-(2-(1H-Pyrrolo[2,3-c]pyridin-4-yl)-1,6-naphthyridin-7-yl)-1-(1-methylpiperidin-4-yl)-1H-pyrazole-4-carboxamide] | 8.30 | < 5.00 | 6.58 | 6.96 | 6.92 | 5.77 | – | 6.47 | – | – | –
CC(C)OC(=O)N1CCC(n2cc(C(=O)Nc3ncc4ccc(-c5cnn(C)c5)cc4n3)cn2)CC1 [Compound 1141, Isopropyl 4-(4-((7-(1-methyl-1H-pyrazol-4-yl)quinazolin-2-yl)carbamoyl)-1H-pyrazol-1-yl)piperidine-1-carboxylate] | 8.10 | 5.39 | 6.75 | 6.14 | 6.38 | 5.50 | – | 5.86 | – | – | –
CC(C)OC(=O)N1CCC(n2cc(C(=O)Nc3cc4nc(-c5cnn(C)c5)ccc4cn3)cn2)CC1 [Compound 234, Isopropyl 4-(4-((2-(1-methyl-1H-pyrazol-4-yl)-1,6-naphthyridin-7-yl)carbamoyl)-1H-pyrazol-1-yl)piperidine-1-carboxylate] | 8.40 | 5.65 | 7.59 | 6.64 | 6.91 | 5.72 | – | 6.48 | – | – | –
CN1CCN(c2cc(C(=O)Nc3ncc4ccc(-c5cnn(C)c5)cc4n3)ccn2)CC1 [Compound 1054, N-(7-(1-Methyl-1H-pyrazol-4-yl)quinazolin-2-yl)-2-(4-methylpiperazin-1-yl) isonicotinamide] | 8.10 | 5.44 | 5.92 | 6.14 | 6.33 | 5.41 | – | 5.63 | – | – | –
Cn1cncc1-c1cnc2cnc(NC(=O)c3ccc4c(c3)CNC4)cc2c1 [Compound 3194, N-(3-(1-Methyl-1H-imidazol-5-yl)-1,7-naphthyridin-6-yl)isoindoline-5-carboxamide] | 8.22 | < 5.00 | ≤ 5.00 | 5.39 | 5.32 | < 5.00 | 8.9% | < 5.00 | 47.3% | – | –
